Results taken from patent US8513310B2, “Cosmetic use of phytosphingosine as slimming agent and cosmetic compositions comprising phytosphingosine” (LVMH Recherche, priority 2002, dated 2013).

Key:
[1] = test system: human adipocytes; assay: Leptin secretion by human adipocytes in culture; format: cell-based; details: most effective doses lower than for murine adipocytes
Text: (§1) Human adipocytes originating from a plasty of a person, which are marketed by ZEN-BIO (USA), were used at an advanced stage of the adipocyte maturation. The reception of these cells in culture took place 16 days after sowing. They are cultivated in a specific medium ensuring their differentiation throughout the whole treatment. • D-16: sowing • D0: start of the treatment with the extract of Coleus (PB) and/or phytosphingosine (PS) • D6 to D18: determination of the various parameters.

[2] = test system: human adipocytes; assay: Release of non-esterified fatty acids by human adipocytes in culture; format: cell-based; details: dose of 6 ng/mL
Text: as §1, with “parameters. The properties of Coleus described above for the 3T3F442A murine adipocytes were first of all verified on these human cells: lipolytic activity by measurement of the release of glycerol and non-esterified fatty acids.” for “parameters.”

[3] = test system: glycerol-3-phosphate dehydrogenase (G3PDH); assay: G3PDH activity (lipogenesis) in 3T3 F442A preadipocytes treated with media conditioned by treated mature adipocytes; format: cell-based, mouse; details: 8 days, control 0.0016
Text: Thus, the mature adipocytes are firstly treated with PB+PS Secondly, the culture medium which is conditioned with these adipocytes is placed in contact with preadipocytes the maturation of which into adipocytes will be followed. A key enzyme in the process of synthesis of triglycerides is glycerol-3-phosphate dehydrogenase (G3PDH): its specific activity increases considerably during maturation and can thus be used as a precise and sensitive measurement of adipocyte conversion (Pairault J., Green H., Proc. Nat. Acad. Sci. USA, (1979) 76, 5138-42; Koekemoer T. C. et al, Int. J. Biochem. Cell Biol. (1995) 27, 625-32). […] Since G3PDH is a hydrosoluble enzyme, its activity is measured in the supernatant of the cell grindings, in the presence of appropriate substrates (NADH, TEA (triethanolamine)-EDTA, 50 mM, 1 mM). The specific activity is calculated from these determinations. […] Then, the percentage inhibition is calculated of the inhibition of the activity of the G3PDH produced by the substances compared to the controls. […] The consumption of NADH as a function of time is measured by spectrophotometry (KONTRON) at 340 nm. An absorbance variation/minute (Δ Abs/minute) can thus be calculated which corresponds to the initial rate of the enzymatic reaction. […] The total protein content is evaluated by the BCA method (Protein Assay Reagent-PIERCE LTD)

[4] = test system: human adipocytes; assay: Release of glycerol by human adipocytes in culture (lipolysis); format: cell-based; details: for glycerol (pg/mL) release: 25 μg/mL
Text: Human adipocytes originating from a plasty of a person, which are marketed by ZEN-BIO (USA), were used at an advanced stage of the adipocyte maturation. The reception of these cells in culture took place 16 days after sowing. […] The properties of Coleus described above for the 3T3F442A murine adipocytes were first of all verified on these human cells: lipolytic activity by measurement of the release of glycerol and non-esterified fatty acids.

[5] = test system: 3T3-F442A adipocytes; assay: Leptin secretion by murine 3T3-F442A adipocytes in culture (ELISA on supernatants); format: cell-based, mouse; details: for increase in the secretion of leptin / stimulation of the leptin secretion: D21, versus control; for leptin (pg/mL) Average in culture supernatants: mature 3T3-F442A adipocytes, control 1510
Description: The principle of the test is to control the secretion of leptin by the adipocytes.
Culture of 3T3 F442A Cells
The 3T3 F442A preadipocytes are shown at D0 in 35 mm Petri dishes (Corning) and placed in an oven at 37° C. under an air-CO2 atmosphere (95-5). The cells are cultivated in an Eagle minimum essential medium modified according to Dulbecco (glucose 4.50 g/l) (DMEM-GIBCO BRL) supplemented with 5% of calf serum (CS) (BIOMEDIA®) and 5% of foetal calf serum (GIBCO) during the growth phase. The medium is changed at D2 and D4.
At the cell confluence (at D7), the medium is changed:
The basic medium remains the same (DMEM) but is supplemented with 10% of foetal calf serum (FCS) and insulin (5 μg/mL) (SIGMA).
The medium is then changed at D9 and D11.
At D14, D16 and D18, a treatment is made with the composition the effectiveness of which on the leptin synthesis it is sought to verify.
The leptin secreted is determined by means of a sandwich-type Elisa technique re-running with a Quantikine M Mouse Leptin Immunoassay kit.
This ELISA determination uses recombined mouse leptin, expressed in E. coli and antibodies directed against recombinant mouse leptin.
The test uses a “sandwich” immunoenzymatic technique. The microplate wells are lined with a mouse leptin polyclonal antibody.
The standards, controls and samples are deposited in the wells and, at the same moment, all the leptin present binds to the immobilised antibody.
The bound leptin is then detected by a mouse anti-leptin antibody which is coupled to an enzyme peroxidase. A substrate solution is then added into the wells. The enzymatic reaction leads to a blue solution which turns yellow after addition of a quenching solution.
The intensity of the colour measured is proportional to the amount of leptin present. The reading of the optical density is done at 450 nm on the spectrophotometer.
The determination is obtained afterwards of the dose-response curves in relation to the measurement of natural leptin, parallel to the standard curves obtained with “recombinant” Quantikine M standards. The Quantikine M kit thus enables the relative mass values for the natural mouse leptin to be determined.
The optical density measured at 450 nm is proportional to the amount of antibody fixed, which is itself proportional to the amount of leptin present initially. The results are expressed in pg/mL of leptin present in the cell supernatants.
The samples were tested in triplicate.
Three compositions containing 0.25, 1 and 2 μg/mL, respectively, of phytosphingosine or of its hydrochloride, were tested.

[6] = 0.25 μg/mL, day D21 (7 days of treatment)

CCCCCCCCCCCCCCC(O)C(O)[C@@H](N)CO (stereo in doubt) [phytosphingosine, (2S,3S,4R)-2-amino-1,3,4-octadecanetriol]
leptin secretion in human adipocytes [1]: induces an increase of leptin secretion
release of non-esterified fatty acids [2]: without concomitant release of non-esterified fatty acids
O.D. (nmoles NAD+) average ([3]; PB 0, PS 0.5 μg/mL): 0.0014 nmoles NAD+
O.D. (nmoles NAD+) average ([3]; PB 0, PS 1 μg/mL): 0.00165 nmoles NAD+
glycerol (pg/mL) release ([4]; day 3, control 73.78): 174.4 pg/mL
glycerol (pg/mL) release ([4]; day 6, control 120.8): 196.2 pg/mL
glycerol (pg/mL) release ([4]; day 9, control 147.2): 302.9 pg/mL
glycerol (pg/mL) release ([4]; day 12, control 198.4): 416.4 pg/mL
glycerol (pg/mL) release ([4]; day 15, control 196.3): 460.6 pg/mL
glycerol (pg/mL) release ([4]; day 18, control 230.9): 659.8 pg/mL
glycerol (pg/mL) release ([4]; day 21, control 276.6): 777.1 pg/mL
glycerol (pg/mL) release ([4]; day 23, control 238.9): 687 pg/mL
release of glycerol ([4]; dose of 6 ng/mL): responsible for a release of glycerol with time
increase in the secretion of leptin ([5]; 0.25 μg/mL): more than 18%
leptin (pg/mL) Average in culture supernatants [5, 6]: 1789 pg/mL
leptin (pg/mL) Average in culture supernatants ([5]; 1 μg/mL, day D21): 1563.6 pg/mL
leptin (pg/mL) Average in culture supernatants ([5]; 2 μg/mL, day D21): 1428.8 pg/mL

CCCCCCCCCCCCCC[C@@H](O)[C@@H](O)[C@@H](N)CO.Cl [Phytosphingosine hydrochloride]
increase in the secretion of leptin ([5]; 0.25 μg/mL): +18%
leptin (pg/mL) Average in culture supernatants [5, 6]: 1789 pg/mL
stimulation of the leptin secretion ([5]; 1 μg/mL): +52%
leptin (pg/mL) Average in culture supernatants ([5]; 1 μg/mL, day D21): 2301.3 pg/mL
stimulation of the leptin secretion ([5]; 2 μg/mL): +26%
leptin (pg/mL) Average in culture supernatants ([5]; 2 μg/mL, day D21): 1907.9 pg/mL
